# Test results from patent US8268836B2, “Compound useful as a c-Met inhibitor” (Eli Lilly and Company, priority 2010, dated 2012).
# Counter-ions that a name gives are not always drawn.
# Legend:
# cMet enzyme = cMet enzyme (Homo sapiens, UniProt P08581); assay: cMet Homogeneous Time Resolved Fluorescence (HTRF) in vitro assay; format: biochemical; details: relative IC50; read-out: c-Met IC50 (HTRF)
# From the text: This assay is based on HTRF technology and it is used to detect the phosphorylation of biotin labeled tyrosine peptide by cMet enzyme. After the reaction is completed, XL665 labeled streptavidin is used to recognize the biotin unit and a Europium (Eu3+) labeled anti-phospho-tyrosine antibody is used to recognize the phosphorylated tyrosine. The detection process relies on the transfer of energy between the excited Eu3+ and the XL665 labeled streptavidin. The aim of this protocol is to calculate the ability of test compounds to inhibit the phosphorylation of the product of this reaction and calculate their relative IC50 values.
# A reference compound, if desired, may be prepared as a 1 mM stock solution in 100% DMSO and test compounds are prepared as 10 mM stock solutions in 100% DMSO. 1 mM reference compound and 10 mM test compounds are pre-diluted to 8 μM and 80 μM 10% DMSO solutions in a 96-well dilution plate. Compounds are serially diluted (1:3) using Tecan Freedom EVO 200 and 10-point dilution curves are generated for each of the compounds tested. 10 μL of serially diluted compounds are transferred to a 96-well assay plate using Temo (Tecan). […] The assay plate is incubated at RT for 60 min before reading the fluorescence signals at 620 nm emission and 665 nm […] in a Victor3 instrument (PerkinElmer Corporation). […]
# [1] = target: T1, Met (pY1349) in NCl-H460 cells (Homo sapiens, UniProt P08581); assay: HGF stimulated Met (pY1349) NCI-H460 cell-based ELISA; details: HGF 100 ng/mL stimulated NCI-H460 cells; read-out: relative IC50, H460 assay (c-Met phosphorylation)
# T1 construct: host or cells: NCI-H460
# Description: NCl—H460 cells (purchased from ATCC) are cultured in RPMI 1640 media (Invitrogen) supplemented with 10% Fetal Bovine Serum (FBS) and plated (prior to becoming 70% confluent) in 96-well flat-bottom plates at a density of 20,000 cells per well in 80 μL volume. The cells are then incubated overnight in a cell culture incubator (5% CO2, 95% Relative Humidity (RH) and 37° C.) and allowed to attach to the plate. The following morning the cells are washed with 2 volumes of a Reduced Serum Media (RSM, RPMI 1640 media supplemented with 0.5% FBS). After removal of the last wash, 80 μL of RSM is added to each well of the cell plates. The cell plates are incubated for 2.5 h in a cell culture incubator, and then dosed with compounds. Compound inhibitors are first solubilized at 10 mM in 100% DMSO and then diluted to 100 μM with 2% DMSO RSM. […] After 1 h capture (at RT) the MSD® plate wells are washed with 1× Tris Wash Buffer, and then 150 μL of 1× Read Buffer T (with surfactant, MSD®) is added. Immediately after the addition of the Read Buffer, the plates are analyzed with a SECTOR 6000 MSD® Imager plate reader. Relative IC50 values are determined using MSD activity units by calculating percent inhibition with respect to on-plate “MIN” and “MAX” controls and then fitting the percent inhibition values and ten-point dose response data to a four-parameter logistic equation.
# T1 sequence (P08581 25-1390): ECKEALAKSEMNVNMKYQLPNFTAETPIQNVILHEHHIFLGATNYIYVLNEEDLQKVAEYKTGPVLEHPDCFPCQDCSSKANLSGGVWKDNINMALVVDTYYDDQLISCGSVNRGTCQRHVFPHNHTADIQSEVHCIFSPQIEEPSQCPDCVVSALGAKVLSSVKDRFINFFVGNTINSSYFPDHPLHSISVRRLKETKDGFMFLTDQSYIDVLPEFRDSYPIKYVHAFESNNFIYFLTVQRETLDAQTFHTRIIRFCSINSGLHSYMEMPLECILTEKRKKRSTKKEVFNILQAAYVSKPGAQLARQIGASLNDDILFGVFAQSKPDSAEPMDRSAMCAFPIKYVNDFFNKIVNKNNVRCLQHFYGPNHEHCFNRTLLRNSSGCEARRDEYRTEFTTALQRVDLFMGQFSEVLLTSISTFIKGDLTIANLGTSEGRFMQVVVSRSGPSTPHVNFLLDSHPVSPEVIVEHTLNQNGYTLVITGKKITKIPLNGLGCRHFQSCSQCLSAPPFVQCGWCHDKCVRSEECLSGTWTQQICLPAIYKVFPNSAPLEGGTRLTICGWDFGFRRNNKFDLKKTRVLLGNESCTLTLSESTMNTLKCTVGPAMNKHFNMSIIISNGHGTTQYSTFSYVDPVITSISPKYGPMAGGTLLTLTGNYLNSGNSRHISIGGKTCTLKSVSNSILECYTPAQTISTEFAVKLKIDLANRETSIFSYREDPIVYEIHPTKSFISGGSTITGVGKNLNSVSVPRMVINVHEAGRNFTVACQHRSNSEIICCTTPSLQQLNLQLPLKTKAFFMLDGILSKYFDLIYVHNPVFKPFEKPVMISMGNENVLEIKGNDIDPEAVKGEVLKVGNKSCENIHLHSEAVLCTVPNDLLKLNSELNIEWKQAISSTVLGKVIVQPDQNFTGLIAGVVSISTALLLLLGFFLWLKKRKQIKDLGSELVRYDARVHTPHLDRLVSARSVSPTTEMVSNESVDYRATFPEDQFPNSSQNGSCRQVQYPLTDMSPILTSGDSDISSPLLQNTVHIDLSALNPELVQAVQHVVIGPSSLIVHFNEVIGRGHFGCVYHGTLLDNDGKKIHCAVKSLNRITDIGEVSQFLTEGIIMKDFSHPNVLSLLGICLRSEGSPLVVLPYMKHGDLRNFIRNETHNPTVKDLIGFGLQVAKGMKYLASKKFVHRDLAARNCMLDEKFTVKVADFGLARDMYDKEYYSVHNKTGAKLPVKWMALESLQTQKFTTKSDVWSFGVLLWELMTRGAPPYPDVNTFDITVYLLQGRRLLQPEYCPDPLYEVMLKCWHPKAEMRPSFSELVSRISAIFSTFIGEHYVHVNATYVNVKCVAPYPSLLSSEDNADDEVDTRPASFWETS
# cMet enzyme, sequence (P08581 25-1390): as above
smiles,measurement,setting,value
Cn1cc(-c2ccc3nnc(Sc4ccc5nn(C)cc5c4)n3n2)cn1 [mesylate salt form of example 1],IC50,cMet enzyme,0.025 µM
same,IC50,[1],0.038 µM
